Measurements taken from patent US9980943B2, “Methods of treating muscular dystrophy” (BOARD OF REGENTS OF THE NEVADA SYSTEM OF HIGHER EDUCATION, …, priority 2013, dated 2018).

How the values were obtained:
Type in all cases: cell-based, mouse
[1] = test system: α7 integrin (LacZ reporter in α7βgal+/− myoblasts); experiment: Myoblast α7+/LacZ integrin FDG assay (Burkin assay in myoblasts, 96-well); conditions: α7+/LacZ myoblasts, 96-well
[2] = test system: β-galactosidase in CMV-LacZ C2C12 myoblasts; experiment: CMV-LacZ secondary screen in C2C12 myoblasts (β-Gal stabilizing assay); conditions: CMV-LacZ C2C12 myoblasts
Summary of the method: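 Dose-response runs at 0.5–40 μM (0.5, 1, 5, 10, 20, 40 μM; N=2 per point) used a clonal C2C12 line carrying CMV-LacZ. Cells were assayed as myoblasts or as differentiated myotubes, and β-galactosidase levels were read with the FDG fluorogenic substrate.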

[3] = test system: β-galactosidase in CMV-LacZ C2C12 myotubes; experiment: CMV-LacZ secondary screen in C2C12 myotubes (β-Gal stabilizing assay); conditions: C2C12 CMV-LacZ myotubes, fold relative to DMSO
Summary of the method: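 Stable CMV-LacZ C2C12 clone; six-point curve 0.5–40 μM; duplicates.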

[4] = test system: α7 integrin (LacZ reporter in α7+/LacZ myotubes); experiment: Myotube α7 integrin FDG assay (Burkin assay in myotubes, 96-well); conditions: myotubes

Row | SMILES | Burkin Assay in Myoblasts, signal relative to DMSO ([1]; 0.5 uM) | Burkin Assay in Myoblasts, signal relative to DMSO ([1]; 1 uM) | Burkin Assay in Myoblasts, signal relative to DMSO ([1]; 5 uM) | Burkin Assay in Myoblasts, signal relative to DMSO ([1]; 10 uM) | Burkin Assay in Myoblasts, signal relative to DMSO ([1]; 20 uM) | Burkin Assay in Myoblasts, signal relative to DMSO ([1]; 40 uM) | CMV-LACZ in Myoblasts (β-galactosidase activity relative to DMSO) ([2]; 0.5 uM) | CMV-LACZ in Myoblasts (β-galactosidase activity relative to DMSO) ([2]; 1 uM) | CMV-LACZ in Myoblasts (β-galactosidase activity relative to DMSO) ([2]; 5 uM) | CMV-LACZ in Myoblasts (β-galactosidase activity relative to DMSO) ([2]; 10 uM) | CMV-LACZ in Myoblasts (β-galactosidase activity relative to DMSO) ([2]; 20 uM) | CMV-LACZ in Myoblasts (β-galactosidase activity relative to DMSO) ([2]; 40 uM) | CMV-LACZ in Myotubes, signal relative to DMSO ([3]; 0.5 uM) | CMV-LACZ in Myotubes, signal relative to DMSO ([3]; 1 uM) | CMV-LACZ in Myotubes, signal relative to DMSO ([3]; 5 uM) | CMV-LACZ in Myotubes, signal relative to DMSO ([3]; 10 uM) | CMV-LACZ in Myotubes, signal relative to DMSO ([3]; 20 uM) | CMV-LACZ in Myotubes, signal relative to DMSO ([3]; 40 uM) | Burkin Assay in Myotubes, α7 integrin LacZ reporter signal relative to DMSO ([4]; 0.5 uM) | Burkin Assay in Myotubes, α7 integrin LacZ reporter signal relative to DMSO ([4]; 1 uM) | further results
1 | CCOc1ccccc1Nc1cc2n(c(=O)n1)CCc1cc(OC)c(OC)cc1-2 [MLS001215294-01] | 0.9783 | 1.003 | 0.7641 | 0.6141 | 0.2025 | 0.2046 | 1.2983 | 1.2817 | 0.8138 | 1.3412 | 0.3302 | 0.4116 | 0.8838 | 1.0800 | 1.1438 | 1.4324 | 1.2800 | 1.4470 | 1.047 | 1.106 | Burkin Assay in Myotubes, α7 integrin LacZ reporter signal relative to DMSO ([4]; 5 uM): 0.8935; Burkin Assay in Myotubes, α7 integrin LacZ reporter signal relative to DMSO ([4]; 10 uM): 0.8216; Burkin Assay in Myotubes, α7 integrin LacZ reporter signal relative to DMSO ([4]; 20 uM): 0.8062; Burkin Assay in Myotubes, α7 integrin LacZ reporter signal relative to DMSO ([4]; 40 uM): 0.8079
2 | O=C(CSc1nnc(COc2ccc(Br)cc2)o1)NC1CCCCC1 [MLS001215357-01] | 1.037 | 0.93 | 0.8837 | 1.489 | 0.9203 | 0.5327 | 1.1560 | 1.2686 | 0.8575 | 1.0378 | 1.2467 | 0.4719 | 1.1547 | 1.1400 | 1.1407 | 1.1192 | 1.3622 | 1.0667 | 0.9366 | 0.8137 | Burkin Assay in Myotubes, α7 integrin LacZ reporter signal relative to DMSO ([4]; 5 uM): 0.9057; Burkin Assay in Myotubes, α7 integrin LacZ reporter signal relative to DMSO ([4]; 10 uM): 0.884; Burkin Assay in Myotubes, α7 integrin LacZ reporter signal relative to DMSO ([4]; 20 uM): 0.756; Burkin Assay in Myotubes, α7 integrin LacZ reporter signal relative to DMSO ([4]; 40 uM): 0.6929
3 | CCCCNc1nnc(Cc2ccc(Cl)cc2)c(=O)[nH]1 [MLS001215795-01] | 1.143 | 1.207 | 0.932 | 0.7776 | 0.741 | 0.7187 | 0.8003 | 1.1375 | 1.0974 | 0.8628 | 0.8196 | 0.8256 | 0.9363 | 1.0207 | 0.9309 | 1.0250 | 1.3929 | 1.1035 | 1.291 | 1.191 | Burkin Assay in Myotubes, α7 integrin LacZ reporter signal relative to DMSO ([4]; 5 uM): 0.863; Burkin Assay in Myotubes, α7 integrin LacZ reporter signal relative to DMSO ([4]; 10 uM): 0.9107; Burkin Assay in Myotubes, α7 integrin LacZ reporter signal relative to DMSO ([4]; 20 uM): 0.9147; Burkin Assay in Myotubes, α7 integrin LacZ reporter signal relative to DMSO ([4]; 40 uM): 0.8873
4 | CC(C)(C)Nc1nc(-c2ccc3c(c2)CCN3C(=O)C2CC2)cs1 [MLS001216939-01] | 1.123 | 1.2827 | 1.111 | 0.9828 | 0.8633 | 0.7865 | 1.0991 | 1.1134 | 1.0913 | 0.9452 | 1.1863 | 1.0644 | 1.0311 | 0.9748 | 1.1826 | 1.2568 | 1.1518 | 0.9659 | 1.193 | 1.185 | Burkin Assay in Myotubes, α7 integrin LacZ reporter signal relative to DMSO ([4]; 5 uM): 1.07; Burkin Assay in Myotubes, α7 integrin LacZ reporter signal relative to DMSO ([4]; 10 uM): 1.06; Burkin Assay in Myotubes, α7 integrin LacZ reporter signal relative to DMSO ([4]; 20 uM): 0.8529; Burkin Assay in Myotubes, α7 integrin LacZ reporter signal relative to DMSO ([4]; 40 uM): 0.4743
5 | Cc1ccc(Cn2nnc3c(=O)[nH]c(C4CCCN(C(=O)c5ccco5)C4)nc32)cc1 (stereo not drawn) [MLS001217212-01] | 1.095 | 1.178 | 0.9785 | 0.9933 | 0.9967 | 1.064 | 1.1804 | 0.9179 | 1.0711 | 1.0626 | 1.1137 | 0.9459 | 1.0190 | 0.9610 | 0.9795 | 1.0832 | 1.1842 | 1.0105 | 0.8233 | 0.8386 | Burkin Assay in Myotubes, α7 integrin LacZ reporter signal relative to DMSO ([4]; 5 uM): 0.8831; Burkin Assay in Myotubes, α7 integrin LacZ reporter signal relative to DMSO ([4]; 10 uM): 0.8772; Burkin Assay in Myotubes, α7 integrin LacZ reporter signal relative to DMSO ([4]; 20 uM): 0.7663; Burkin Assay in Myotubes, α7 integrin LacZ reporter signal relative to DMSO ([4]; 40 uM): 0.7366
6 | CCCc1nnc(SCC(=O)NC2CCCC2)n1CCOC [MLS001217935-01] | 1.162 | 1.076 | 0.9106 | 0.893 | 0.8002 | 0.587 | 1.1729 | 1.1167 | 1.0175 | 1.0465 | 0.7859 | 0.5381 | 0.9705 | 1.1381 | 1.1473 | 0.9648 | 1.0547 | 0.9495 | 0.9075 | 1.018 | Burkin Assay in Myotubes, α7 integrin LacZ reporter signal relative to DMSO ([4]; 5 uM): 0.8812; Burkin Assay in Myotubes, α7 integrin LacZ reporter signal relative to DMSO ([4]; 10 uM): 1.081; Burkin Assay in Myotubes, α7 integrin LacZ reporter signal relative to DMSO ([4]; 20 uM): 0.7887; Burkin Assay in Myotubes, α7 integrin LacZ reporter signal relative to DMSO ([4]; 40 uM): 0.5246
